Results as given in patent US10300065B2, “Method of treating or prevention of atherothrombotic events in patients with history of myocardial infarction” (ASTRAZENECA AB, priority 2015, dated 2019).
Where two headings read alike, the source gives them in different places.

Key:
[1] = test system: patients with a history of myocardial infarction
Description: Any erroneously treated patients (e.g., randomized to ticagrelor but actually given placebo) were to be accounted for in the actual treatment group.
The primary efficacy endpoint was the composite of cardiovascular death, myocardial infarction, or stroke. Secondary endpoints were cardiovascular death and all-cause mortality. The analysis of secondary endpoints proceeded in a hierarchical fashion, starting with cardiovascular death and then death from any cause. Additional endpoints listed below were evaluated on an exploratory basis. Exploratory efficacy endpoints included substituting coronary heart disease death for cardiovascular death, and the additional end points of urgent coronary revascularization, unstable angina, and transient ischemic attack. The primary safety endpoint was TIMI major bleeding. Other safety endpoints included intracranial hemorrhage (ICH) and fatal bleeding. […] A central clinical events committee whose members were unaware of the treatment assignments adjudicated all efficacy endpoints and bleeding episodes.
Safety analyses included all randomized patients who received at least one dose of study drug and for whom post-dose data were available. Patients were censored at the first of the pre-specified Common Study End Date, withdrawal of consent, or the last clinical event assessment. Safety was analyzed as on-treatment including all events occurring after first dose and within 7 days after the last dose of study drug. […] Event rates are expressed as Kaplan-Meier estimates of cumulative incidence.

platelets [2] = assay: VerifyNow P2Y12 assay (platelet reactivity, PRU), platelet function substudy; type: cell-based, human; conditions: for VerifyNow % inhibition Post dose / VerifyNow PRU Post dose: 2 h post dose; for VerifyNow % inhibition Post dose / VerifyNow PRU Post dose / VerifyNow % inhibition Pre dose / VerifyNow PRU Pre dose: mean (SD)
Description: (§1) The pharmacokinetics (PK) and pharmacodynamics of the 60 mg bid dose had not previously been studied. […] 180 patients who had received >4 weeks of study medication had blood sampling in the morning pre-maintenance dose and again 2 h post-dose. All patients were receiving aspirin. […] Well-known VerifyNow® P2Y12 assay and light transmittance aggregometry (LTA; ADP 20 uM) were performed. Groups were compared using Kruskal-Wallis test with significance attached to P<0.01 to allow for multiple group comparisons.

platelets [3] = assay: Light transmittance aggregometry (LTA; ADP 20 uM), platelet function substudy; type: cell-based, human; conditions: for Emax: Homo sapiens, Platelet, mean (SD)
Description: as §1

[4] = 90 mg bid (N = 6988), listed as ticagrelor
[5] = 90 mg bid, intention-to-treat population

## CCCSc1nc(N[C@@H]2C[C@H]2c2ccc(F)c(F)c2)c2nnn([C@@H]3C[C@H](OCCO)[C@@H](O)[C@H]3O)c2n1 [Ticagrelor, (1S,2S,3R,5S)-3-[7-{[(1R,2S)-2-(3,4-difluorophenyl)cyclopropyl]amino}-5-(propylthio)-3H-[1,2,3]-triazolo[4,5-d]pyrimidin-3-yl]-5-(2-hydroxyethoxy)cyclopentane-1,2-diol]
[1]; 90 mg bid
  ICH: ARI (%): 0.09%
  ICH: NNH: 1111
  TIMI major bleeding: ARI (%): 1.54%
  TIMI major bleeding: NNH: 65
  frequency of death (including bleeding): 4.8%
  frequency of death, bleeding events excluded: 4.4%
  median duration of resolved dyspnea adverse events: 22 days
[1]; 90 mg bid (N = 6988)
  Adverse event leading to death: (%): (2.3) %
  Adverse event leading to death: n: 161
  Adverse event leading to discontinuation of study drug: (%): (18.7) %
  Adverse event leading to discontinuation of study drug: n: 1306
  Any adverse event: (%): (76.2) %
  Any adverse event: n: 5327
  Any serious adverse event: (%): (21.7) %
  Any serious adverse event: n: 1514
  Bleeding leading to study drug discontinuation: 3-year Kaplan-Meier estimate: (7.80) %
  Bleeding leading to study drug discontinuation: n: 454
  Bleeding requiring transfusion: 3-year Kaplan-Meier estimate: (2.40) %
  Bleeding requiring transfusion: n: 122
  Bradyarrhythmia adverse event: (%): (1.5) %
  Bradyarrhythmia adverse event: n: 105
  Dyspnea AE: (%): (17.22) %
  Dyspnea AE: n: 1204
  Dyspnea SAE: (%): (0.3) %
  Dyspnea SAE: n: 22
  Dyspnea leading to study drug discontinuation: (%): (6.2) %
  Dyspnea leading to study drug discontinuation: n: 430
  Fatal Bleeding: 3-year Kaplan-Meier estimate: (0.11) %
  Fatal Bleeding: n: 6
  Fatal bleeding or non-fatal intracranial hemorrhage: 3-year Kaplan-Meier estimate: (0.71) %
  Fatal bleeding or non-fatal intracranial hemorrhage: n: 33
  Gout adverse event: (%): (1.4) %
  Gout adverse event: n: 99
  Intracranial Hemorrhage: 3-year Kaplan-Meier estimate: (0.56) %
  Intracranial Hemorrhage: n: 29
  Renal adverse event: (%): (2.4) %
  Renal adverse event: n: 166
  Serious adverse event leading to discontinuation of study drug: (%): (3.7) %
  Serious adverse event leading to discontinuation of study drug: n: 256
  TIMI Major bleeding: 3-year Kaplan-Meier estimate: (2.60) %
  TIMI Major bleeding: n: 127
  TIMI Minor bleeding: 3-year Kaplan-Meier estimate: (1.31) %
  TIMI Minor bleeding: n: 66
[1]; [4]
  Bleeding leading to study drug discontinuation: 3-year Kaplan-Meier estimate: 7.8%
  Bleeding requiring transfusion: 3-year Kaplan-Meier estimate: 2.4%
  Dyspnea leading to study drug discontinuation: (%): 6.5%
  Fatal Bleeding: 3-year Kaplan-Meier estimate: 0.1%
  Intracranial Hemorrhage: 3-year Kaplan-Meier estimate: 0.6%
  TIMI Major bleeding: 3-year Kaplan-Meier estimate: 2.60%
[1]; 90 mg bid vs Placebo
  Bleeding leading to study drug discontinuation: HR: 5.67
  Bleeding requiring transfusion: HR: 3.75
  Dyspnea AE: HR: 3.55
  Dyspnea SAE: HR: 3.02
  Dyspnea leading to study drug discontinuation: HR: 8.89
  Fatal Bleeding: HR: 0.58
  Fatal bleeding or non-fatal intracranial hemorrhage: HR: 1.20
  Intracranial Hemorrhage: HR: 1.44
  TIMI Major bleeding: HR: 2.69
  TIMI Minor bleeding: HR: 4.15
[1]; 90 mg bid, intention-to-treat data
  TIMI major bleeding events per year if 10,000 patients were started on treatment versus placebo: 41
[1]; [5]
  Death: (%): (4.6) %
  Death: n: 326
  Non-Cardiovascular death: (%): (2.0) %
  Non-Cardiovascular death: n: 142
[1]; 90 mg, over the duration of the trial
  proportion of patients who prematurely discontinued treatment: 32.0%
[1]; PEGASUS, 60 mg bid
  serum uric acid level increase from baseline: approximately 0.2 mg/dL
[1]; PEGASUS, experimental arm
  Gout, patients: 1.5%
[1]; either dose of ticagrelor
  dyspneic episodes characterized as mild: 57%
  dyspneic episodes characterized as moderate: 38%
[1]; patients on ticagrelor
  dyspnea as a serious adverse event, 3-year rate: 0.3%
Platelets [2]; 60 mg, post dose
  High platelet reactivity assessed by VerifyNow (PRU >208): absent
Platelets [2]; 60 mg, pre-dose
  High platelet reactivity assessed by VerifyNow (PRU >208), patients: 3.5%
Platelets [2]; ticagrelor 60 mg bid
  VerifyNow % inhibition Post dose: 90 (13) %
  VerifyNow PRU Post dose: 29 (39) PRU
  VerifyNow % inhibition Pre dose: 78 (20) %
  VerifyNow PRU Pre dose: 59 (63) PRU
Platelets [2]; ticagrelor 90 mg bid
  VerifyNow % inhibition Post dose: 92 (8) %
  VerifyNow PRU Post dose: 20 (19) PRU
  VerifyNow % inhibition Pre dose: 83 (14) %
  VerifyNow PRU Pre dose: 47 (43) PRU
Platelets [3]; 90 mg vs 60 mg
  Platelet reactivity pre- and post-dose as measured by LTA: numerically but not significantly lower with 90 mg than 60 mg
Platelets [3]; 2 h, ticagrelor 60 mg bid, 2 h post dose, read-out: LTA Max response (maximum % aggregation response) Post dose
  Emax: 33%
Platelets [3]; 2 h, ticagrelor 90 mg bid, 2 h post dose, read-out: LTA Max response (maximum % aggregation response) Post dose
  Emax: 29%
Platelets [3]; ticagrelor 60 mg bid, pre dose, read-out: LTA Max response (maximum % aggregation response) Pre dose
  Emax: 39%
Platelets [3]; ticagrelor 90 mg bid, pre dose, read-out: LTA Max response (maximum % aggregation response) Pre dose
  Emax: 36%
